Test results reported in the supplement of paper PMC10307832.

Columns and labels:
Assay in all cases: relative viability (nuclei count vs DMSO), 5 days (fraction); higher = more cells survive
VX-11e + Luminespib = compound: CC1=CN=C(N=C1C2=CNC(=C2)C(=O)N[C@H](CO)C3=CC(=CC=C3)Cl)NC4=C(C=C(C=C4)F)Cl [VX-11e] + CCNC(=O)c1noc(-c2cc(C(C)C)c(O)cc2O)c1-c1ccc(CN2CCOCC2)cc1 [Luminespib] (partner 0.01 µM)
In short: (§1)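 Lung cancer cell lines in 1536-well plates got either a single drug or a fixed anchor-drug dose together with five library-drug doses (not always all listed) in √10 steps, by pin tool, on the day after seeding. Nuclei were counted after 5 days, and relative viability is the treated-to-vehicle ratio of nuclei counts. Values are medians of duplicate plates.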

VX-11e + Linsitinib = compound: CC1=CN=C(N=C1C2=CNC(=C2)C(=O)N[C@H](CO)C3=CC(=CC=C3)Cl)NC4=C(C=C(C=C4)F)Cl [VX-11e] + C[C@]1(O)C[C@@H](c2nc(-c3ccc4ccc(-c5ccccc5)nc4c3)c3c(N)nccn32)C1 [Linsitinib] (partner 1 µM)
In short: as §1

VX-11e + Navitoclax = compound: CC1=CN=C(N=C1C2=CNC(=C2)C(=O)N[C@H](CO)C3=CC(=CC=C3)Cl)NC4=C(C=C(C=C4)F)Cl [VX-11e] + CC1(C)CCC(c2ccc(Cl)cc2)=C(CN2CCN(c3ccc(C(=O)NS(=O)(=O)c4ccc(N[C@H](CCN5CCOCC5)CSc5ccccc5)c(S(=O)(=O)C(F)(F)F)c4)cc3)CC2)C1 [Navitoclax] (partner 0.5 µM)
In short: as §1

VX-11e + Foretinib = compound: CC1=CN=C(N=C1C2=CNC(=C2)C(=O)N[C@H](CO)C3=CC(=CC=C3)Cl)NC4=C(C=C(C=C4)F)Cl [VX-11e] + COc1cc2c(Oc3ccc(NC(=O)C4(C(=O)Nc5ccc(F)cc5)CC4)cc3F)ccnc2cc1OCCCN1CCOCC1 [Foretinib] (partner 0.25 µM)
In short: as §1

Cell Line | relative viability (VX-11e + Luminespib; first compound 0.04 µM) | relative viability (VX-11e + Luminespib; first compound 0.1265 µM) | relative viability (VX-11e + Luminespib; first compound 0.4 µM) | relative viability (VX-11e + Luminespib; first compound 1.265 µM) | relative viability (VX-11e + Luminespib; first compound 4 µM) | relative viability (VX-11e + Linsitinib; first compound 0.04 µM) | relative viability (VX-11e + Linsitinib; first compound 0.1265 µM) | relative viability (VX-11e + Linsitinib; first compound 0.4 µM) | relative viability (VX-11e + Linsitinib; first compound 1.265 µM) | relative viability (VX-11e + Linsitinib; first compound 4 µM) | relative viability (VX-11e + Navitoclax; first compound 0.04 µM) | relative viability (VX-11e + Navitoclax; first compound 0.1265 µM) | relative viability (VX-11e + Navitoclax; first compound 0.4 µM) | relative viability (VX-11e + Navitoclax; first compound 1.265 µM) | relative viability (VX-11e + Navitoclax; first compound 4 µM) | relative viability (VX-11e + Foretinib; first compound 0.04 µM) | relative viability (VX-11e + Foretinib; first compound 0.1265 µM) | relative viability (VX-11e + Foretinib; first compound 0.4 µM) | relative viability (VX-11e + Foretinib; first compound 1.265 µM) | relative viability (VX-11e + Foretinib; first compound 4 µM)
NCI-H1666 | 1.02 | 0.92 | 0.941 | 0.829 | 0.642 | 0.846 | 0.81 | 0.594 | 0.493 | 0.42 | 0.987 | 1.1 | 0.848 | 0.51 | 0.368 | 0.957 | 0.853 | 0.87 | 0.692 | 0.546
NCI-H1734 | 0.203 | 0.21 | 0.269 | 0.205 | 0.163 | 0.797 | 0.789 | 0.814 | 0.837 | 0.536 | 0.787 | 0.796 | 0.685 | 0.652 | 0.245 | 0.941 | 0.852 | 0.81 | 0.706 | 0.344
NCI-H1755 | 0.3 | 0.42 | 0.479 | 0.466 | 0.324 | 1.03 | 0.976 | 0.95 | 0.94 | 0.553 | 1.06 | 0.956 | 0.972 | 0.956 | 0.558 | 0.925 | 0.931 | 0.905 | 0.945 | 0.598
NCI-H1793 | 0.178 | 0.177 | – | 0.275 | 0.15 | – | 0.687 | – | 0.818 | 0.514 | – | 0.526 | – | 0.382 | 0.152 | 0.589 | 0.603 | – | 0.748 | 0.411
NCI-H1915 | 0.821 | 0.737 | 0.851 | 0.773 | 0.59 | 1.21 | 1.12 | 1.19 | 1.04 | 0.857 | 0.826 | 0.761 | 0.787 | 0.682 | 0.546 | 1.12 | 1.08 | 1.16 | 1.13 | 0.791
NCI-H1944 | 0.711 | 0.708 | – | 0.571 | 0.422 | 1.08 | 1.09 | 0.998 | 0.862 | 0.552 | 0.947 | 1.03 | 0.951 | 0.944 | 0.504 | 0.896 | 0.851 | – | 0.806 | 0.505
NCI-H1975 | 0.232 | 0.199 | 0.156 | 0.283 | 0.186 | 0.841 | 1.09 | 0.991 | 0.959 | 0.367 | 1.03 | 1.09 | 1.13 | 1.06 | 0.612 | 1.02 | 0.949 | 1.01 | 1.08 | 0.46
NCI-H1993 | 1.12 | 0.918 | 0.484 | 1.02 | 0.663 | – | 0.757 | – | 0.769 | 0.666 | – | 1.03 | – | 0.804 | 0.612 | 0.786 | 0.818 | 0.857 | 0.734 | 0.667
NCI-H2009 | 1.07 | 1.03 | 1.03 | 1.08 | 0.349 | 1.17 | 1.11 | 1.18 | 1.09 | 0.259 | 1.17 | 1.14 | 1.2 | 0.938 | 0.289 | 1.33 | 1.18 | 1.06 | 0.857 | 0.509
NCI-H2023 | 0.683 | 0.791 | 0.701 | 0.6 | 0.361 | 0.727 | 0.692 | 0.596 | 0.362 | 0.283 | 1.02 | 0.879 | 0.966 | 1 | 0.405 | 0.811 | 0.771 | – | 0.513 | 0.42
NCI-H2085 | 0.378 | 0.433 | 0.396 | 0.323 | 0.276 | 0.987 | 0.818 | 0.834 | 0.9 | 0.649 | 1.17 | 1.02 | 1.1 | 0.919 | 0.719 | 0.973 | 0.951 | 0.725 | 0.835 | 0.679
NCI-H2087 | 0.188 | 0.188 | – | 0.154 | 0.152 | 0.949 | 1.1 | 0.902 | 0.803 | 0.302 | 0.983 | 1 | 0.999 | 0.8 | 0.257 | 1.14 | 1.06 | – | 0.81 | 0.454
NCI-H2126 | 0.824 | 0.877 | – | 0.964 | 0.737 | – | 0.735 | 0.689 | 0.677 | 0.556 | – | 0.861 | 0.877 | 0.785 | 0.638 | 1.21 | 1.22 | 1.01 | 1.1 | 0.903
NCI-H2228 | 0.145 | 0.138 | – | 0.148 | 0.12 | 0.577 | 0.692 | 0.489 | 0.308 | 0.214 | 0.902 | 0.73 | 1.08 | 0.477 | 0.162 | 0.79 | 0.936 | – | 0.482 | 0.275
NCI-H2347 | 0.293 | 0.548 | 0.323 | 0.269 | 0.366 | 1.07 | 0.927 | 0.798 | 0.7 | 0.496 | 0.932 | 0.818 | 0.683 | 0.352 | 0.213 | 0.761 | 0.877 | 0.46 | 0.67 | 0.652
NCI-H2405 | 0.798 | 0.719 | 0.395 | 0.717 | 0.296 | 0.933 | 0.787 | – | 0.817 | 0.272 | 1.03 | 0.921 | – | 0.592 | 0.126 | 1.04 | 1.01 | 1.05 | 1.08 | 0.455
NCI-H3122 | 0.0662 | 0.0869 | – | 0.0911 | 0.0987 | 0.971 | 1.01 | 0.974 | 0.929 | 0.58 | 0.969 | 1.02 | 0.989 | 0.995 | 0.597 | 0.948 | 0.897 | – | 0.851 | 0.487
PC-3 [JPC-3] | 0.627 | 0.595 | 0.66 | 0.744 | 0.591 | 1.08 | 0.959 | 0.99 | 1.09 | 0.822 | 0.786 | 0.803 | 0.682 | 0.831 | 0.743 | 1.06 | 0.972 | 1.05 | 1.08 | 0.769
PC-14 | 0.199 | 0.173 | – | 0.112 | 0.172 | 1 | 0.866 | 0.953 | 0.961 | 0.665 | 1.05 | 1.04 | 1.09 | 0.978 | 0.727 | 1.08 | 1.05 | 0.981 | 1.07 | 0.708
RERF-LC-KJ | 1.32 | 1.06 | 1.05 | 1.21 | 1.11 | 0.989 | 0.863 | 0.862 | 0.874 | 0.708 | 0.849 | 1.1 | 0.977 | 0.946 | 0.619 | 1.01 | 0.886 | 0.901 | 0.856 | 0.813
SK-LU-1 | 0.179 | 0.196 | – | 0.199 | 0.177 | 0.597 | 0.925 | 1.31 | 0.771 | 0.316 | 1.06 | 0.817 | 0.508 | 0.634 | 0.168 | 0.882 | 0.779 | – | 0.574 | 0.224
SK-MES-1 | 0.838 | 0.634 | 0.766 | 0.406 | 0.262 | 1.08 | 1.03 | 1.07 | 1.05 | 0.691 | 1.21 | 1.15 | 1.24 | 1.1 | 0.408 | 1.03 | 0.881 | 0.857 | 1.02 | 0.419
SW 1573 | 0.233 | 0.206 | 0.23 | 0.384 | 0.133 | 1.03 | 0.959 | 0.718 | 0.78 | 0.432 | 1.12 | 0.959 | 0.945 | 0.672 | 0.553 | 0.947 | 0.902 | 0.78 | 0.86 | 0.708
UMC-11 | 1.01 | 1.02 | 1.02 | 0.948 | 0.94 | 0.935 | 0.937 | 1 | 1 | 0.989 | 0.288 | 0.263 | 0.295 | 0.324 | 0.327 | 1.05 | 0.946 | 0.986 | 0.976 | 0.905
